Experimental data from US12358904B2, “Inhibitors of TYK2” (Atomwise Inc., priority 2023, dated 2025).

Key:
[1] = biological target: T1, TYK2-JH2 (Homo sapiens, UniProt P29597); assay: TYK2-JH2 HTRF binding assay (ligand efficiency); settings: calculated from IC50 of the TYK-JH2 binding assay (Equation 1)
T1 construct: TYK JH2 enzyme mix (ChemPartnec CP20210818A-BV); purchased ChemPartner CP20210818A-BV
Experimental: The following example describes the TYK2-JH2 HTRF binding assay used to determine the ligand efficiency of the TYK2 inhibitors.
To calculate ligand efficiency, Equation 1 is applied:
[formula] in which IC50 comes from the binding assay used to determine compound potency.
TYK JH2 enzyme mix (ChemPartnec CP20210818A-BV), tracer (ChemPartnec CP-0029472-051) and mAb Anti-6HIS Tb cryptate Gold (Cisbio: Cat No. 61H12TLA) mix were prepared in assay buffer (10 mM MgCl2, 20 mM HEPES pH 7.5, 0.01% Triton X-100, 1 mM DTT). Compounds diluted in DMSO (Final Concentrations 0.1 to 0.000005 [μM]) and enzyme mix (0.5 nM Final Concentration) were added to 384 well plates, briefly centrifuged and incubated at room temperature for 10 minutes. After incubation, tracer mix (Tracer-35 nM final concentration); (Mab Anti-6HIS Tb cryptate Gold-0.5× final)) was added, briefly centrifuged then incubate at room temperature 60 minutes. After incubation, plates were read by Envision TR-FRET (Ex340/Em495/520) protocol (PerkinElmer-Envision 2104 multilabel plate reader).

[2] = system: IL-12/pSTAT4; assay: IL-12 induced pSTAT4 assay in NK-92 cells; type: cell-based; settings: Homo sapiens, NK92, IL-12 stimulation, read-out: Cellular potency (IL-12/pSTAT4)
Experimental: The following example describes the IL-12 induced pSTAT4 assay used to determine the cellular potency (IL-12/pSTAT4) of the TYK2 inhibitors.
NK-92 cells (human natural killer lymphoma cell line) were cultured in MEM α, nucleosides (Life Technologies, 22571020) 12.5% heat inactivated FBS (Dominique Dutscher, S1810), 12.5% heat inactivated Horse serum (Life Technologies, 26050088) and 1% Penicillin-Streptomycin (Life Technologies, 15140122), 5 ng/mL human IL-2 (R&D systems, 202-II/CF), 0.2 mM inositol (Sigma, PHR1351 lot LRAC4118), 0.1 mM β-mercaptoethanol (Life Technologies, 31350010), and 0.02 mM folic acid (Sigma, F8758).
NK-92 cells were starved overnight in starvation medium (Opti-MEM (ThermoFisher, 11058-021), 10% charcoal stripped FBS (ThermoFisher 12676-029), and 1% Penicillin (100U/ml)-Streptomycin (100 μg/ml) (ThermoFisher, ref 15140122)), then plated in a 96-well tissue culture plate (20K cells/well) prior to pre-incubation with test compounds (Final Concentration [nM] 1000 to 0.05) for 30 minutes at 37° C. Cells were stimulated with IL-12 (Final Concentration l0 ng/ml) for 30 minutes at 37° C., and terminated by addition of lysis buffer (MSD K150PAD-2). pSTAT4 (Tyr693) was detected using the Mesa Scale Discovery platform (MSD K150PAD-2), according to manufacturer's instruction. Briefly, cell lysates were added to pre-blocked plates and incubated for 1 hour at room temperature. Plates were washed and incubated with detection antibody for 1 hour at room temperature. Plates were washed and Read Buffer was added prior to measurement on the MSD (1300 MSD Quickplex SQ 120).

T1 sequence (P29597 589-875 limits assumed): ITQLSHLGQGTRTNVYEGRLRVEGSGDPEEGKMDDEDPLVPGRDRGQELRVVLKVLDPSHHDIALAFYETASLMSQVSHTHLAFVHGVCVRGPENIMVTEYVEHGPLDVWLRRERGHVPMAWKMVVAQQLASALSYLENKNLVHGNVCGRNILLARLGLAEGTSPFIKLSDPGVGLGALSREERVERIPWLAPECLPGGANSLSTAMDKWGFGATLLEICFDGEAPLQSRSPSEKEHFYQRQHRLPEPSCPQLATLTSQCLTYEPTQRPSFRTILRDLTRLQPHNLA

Structure (SMILES)	Ligand Efficiency [1]	IC50 [2]
COc1ccnc(Nc2cc(Nc3ccc(C(C)N4CC5(COC5)C4)cn3)ncn2)c1S(C)(=O)=O (stereo not shown) [Compound 76, N^4-(5-(1-(2-oxa-6-azaspiro[3.3]heptan-6-yl)ethyl)170yridine-2-yl)-N^6-(4-methoxy-3-(methylsulfonyl)170yridine-2-yl)pyrimidine-4,6-diamine]	† (†: <0.37)	100 to 1000 nM
CS(=O)(=O)c1cccnc1Nc1cc(Nc2ccc([C@@H](N3CC4(COC4)C3)C(F)(F)F)cn2)ncn1 [Compound 16, I-N^4-(3-(methylsulfonyl)98yridine-2-yl)-N^6-(5-(2,2,2-trifluoro-1-(2-oxa-6-azaspiro[3.3]heptan-6-yl)ethyl)98yridine-2-yl)pyrimidine-4,6-diamine]	†† (††: 0.37-0.39)	< 100 nM
CS(=O)(=O)c1ccccc1Nc1cc(Nc2ccc(C3(NC4COC4)CC3)cn2)ncn1 [Compound 41, N^4-(2-(methylsulfonyl)phenyl)-N^6-(5-(1-(oxetan-3-ylamino)cyclopropyl)130yridine-2-yl)pyrimidine-4,6-diamine]	†† (††: 0.37-0.39)	100 to 1000 nM
C[C@@H](c1ccc(Nc2cc(Nc3ncccc3S(C)(=O)=O)ncn2)nc1)N1C[C@H]2COC[C@H]2C1 [Compound 25, N^4-(3-(methylsulfonyl)105yridine-2-yl)-N^6-(5-(1-((3aR,6aS)-tetrahydro-1H-furo[3,4-c]pyrrol-5 (3H)-yl)ethyl)105yridine-2-yl)pyrimidine-4,6-diamine]	††† (†††: >0.39)	< 100 nM
CS(=O)(=O)c1cccnc1Nc1cc(Nc2ccc(NC3CC(F)(F)C3)cn2)ncn1 [Compound 37, N^4-(5-(3,3-difluorocyclobutylamino)124yridine-2-yl)-N^6-(3-(methylsulfonyl)124yridine-2-yl)pyrimidine-4,6-diamine]	††† (†††: >0.39)	< 100 nM
CS(=O)(=O)c1cccnc1Nc1cc(Nc2ccc(C(=O)NC3CC(F)(F)C3)cn2)ncn1 [Compound 38, N-(3,3-difluorocyclobutyl)-6-(6-(3-(methylsulfonyl)pyridine-2-ylamino)pyrimidin-4-ylamino)nicotinamide]	††† (†††: >0.39)	< 100 nM
Cc1cccc(Nc2cc(Nc3cccnc3S(C)(=O)=O)ncn2)n1 [Compound 59, N^4-(6-methylpyridin-2-yl)-N^6-(2-(methylsulfonyl)149yridine-3-yl) pyrimidine-4,6-diamine]	††† (†††: >0.39)	> 1000 nM
Cc1cc(Nc2cc(Nc3ncccc3S(C)(=O)=O)ncn2)nnc1C(C)N1CC2(COC2)C1 (stereo not shown) [Compound 77, N^4-(6-(1-(2-oxa-6-azaspiro[3.3]heptan-6-yl)ethyl)-5-methylpyri 172yridi-3-yl)-N^6-(3-(methylsulfonyl)172yridine-2-yl)pyrimidine-4,6-diamine]	†† (††: 0.37-0.39)	> 1000 nM
CC(c1ccc(Nc2cc(Nc3ncc(C4COC4)cc3S(C)(=O)=O)ncn2)nc1)N1CC2(COC2)C1 (stereo not shown) [Compound 78, N^4-(5-(1-(2-oxa-6-azaspiro[3.3]heptan-6-yl)ethyl)175yridine-2-yl)-N^6-(3-(methylsulfonyl)-5-(oxetan-3-yl)175yridine-2-yl)pyrimidine-4,6-diamine]	† (†: <0.37)	> 1000 nM
CS(=O)(=O)c1cccnc1Nc1cc(Nc2ncccc2F)ncn1 [Compound 64, N^4-(3-fluoropyridin-2-yl)-N^6-(3-(methylsulfonyl)154yridine-2-yl) pyrimidine-4,6-diamine]	††† (†††: >0.39)	> 1000 nM
C[C@@H](c1ccc(Nc2cc(Nc3ncccc3S(C)(=O)=O)ncn2)nc1)N1CCCC1 [Compound 15, I-N^4-(3-(methylsulfonyl)97yridine-2-yl)-N^6-(5-(1-(97yridine9797e-1-yl)ethyl)97yridine-2-yl)pyrimidine-4,6-diamine]	††† (†††: >0.39)	< 100 nM
C[C@H](c1ccc(Nc2cc(Nc3ncccc3S(C)(=O)=O)ncn2)nc1)N1CCC2(CCOCC2)C1 [Compound 30, I-N^4-(5-(1-(8-oxa-2-azaspiro[4.5]decan-2-yl)ethyl)112yridine-2-yl)-N^6-(3-(methylsulfonyl)112yridine-2-yl)pyrimidine-4,6-diamine]	†† (††: 0.37-0.39)	< 100 nM
CS(=O)(=O)c1ccccc1Nc1cc(Nc2ccc(C(=O)NC3COC3)cn2)ncn1 [Compound 79, 6-((6-((2-(methylsulfonyl)phenyl)amino)pyrimidin-4-yl)amino)-N-(oxetan-3-yl)nicotinamide]	†† (††: 0.37-0.39)	> 1000 nM
C[C@H]1CN(C)CCN1c1ccc(Nc2cc(Nc3ncccc3S(C)(=O)=O)ncn2)nc1 [Compound 20, (S)—N^4-(5-(2,4-dimethylpiperazin-1-yl)101yridine-2-yl)-N^6-(3-(methylsulfonyl)101yridine-2-yl)pyrimidine-4,6-diamine]	††† (†††: >0.39)	< 100 nM
C[C@@H](c1ccc(Nc2cc(Nc3ncccc3S(C)(=O)=O)ncn2)nc1)N1CC2(CCOCC2)C1 [Compound 31, I-N^4-(5-(1-(7-oxa-2-azaspiro[3.5]nonan-2-yl)ethyl)pyridine-2-yl)-N^6-(3-(methylsulfonyl)114yridine-2-yl)pyrimidine-4,6-diamine]	†† (††: 0.37-0.39)	< 100 nM
Cc1nccc(Nc2cc(Nc3ccccc3C(N)=O)ncn2)n1 [Compound 48, 2-((6-((2-methylpyrimidin-4-yl)amino)pyrimidin-4-yl)amino) benzamide]	††† (†††: >0.39)	100 to 1000 nM
Cn1cc(-c2ccnc(Nc3cc(Nc4ccc(NC5(C)COC5)cn4)ncn3)c2S(C)(=O)=O)cn1 [Compound 72, N^4-(4-(1-methyl-1H-pyrazol-4-yl)-3-(methylsulfonyl)164yridine-2-yl)-N^6-(5-(3-methyloxetan-3-ylamino)164yridine-2-yl)pyrimidine-4,6-diamine]	† (†: <0.37)	> 1000 nM
CS(=O)(=O)c1ccccc1Nc1cc(Nc2ccc(NC3COC3)cn2)ncn1 [Compound 80, N^4-(2-(methylsulfonyl)phenyl)-N^6-(5-(oxetan-3-ylamino)177yridine-2-yl) pyrimidine-4,6-diamine]	† (†: <0.37)	> 1000 nM
Cn1ccc(Nc2cc(Nc3ccccc3C(N)=O)ncn2)n1 [Compound 67, 2-((6-((1-methyl-1H-pyrazol-3-yl)amino)pyrimidin-4-yl)amino)benzamide]	††† (†††: >0.39)	> 1000 nM
COc1cc(Nc2cc(Nc3ncccc3S(C)(=O)=O)ncn2)ncc1NC1(C)COC1 [Compound 62]	†† (††: 0.37-0.39)	> 1000 nM
C[C@@H](c1ccc(Nc2cc(Nc3ncccc3S(C)(=O)=O)ncn2)nc1)N1CCCC12CCOCC2 [Compound 29, (S)—N^4-(5-(1-(8-oxa-1-azaspiro[4.5]decan-1-yl)ethyl)111yridine-2-yl)-N^6-(3-(methylsulfonyl)111yridine-2-yl)pyrimidine-4,6-diamine]	†† (††: 0.37-0.39)	< 100 nM
CS(=O)(=O)c1cccnc1Nc1cc(Nc2ccc(N3CCN(C4CC4)CC3)cn2)ncn1 [Compound 7, N^4-(5-(4-cyclopropylpipeiazin-1-yl) 83yridine-2-yl)-N^6-(3-(methylsulfonyl)83yridine-2-yl)pyrimidine-4,6-diamine]	††† (†††: >0.39)	< 100 nM
CC(C)(c1ccc(Nc2cc(Nc3ncccc3S(C)(=O)=O)ncn2)nc1)N1CC2(CCOCC2)C1 [Compound 33, N^4-(5-(2-(7-oxa-2-azaspiro[3.5]nonan-2-yl)propan-2-yl)118yridine-2-yl)-N^6-(3-(methylsulfonyl)118yridine-2-yl)pyrimidine-4,6-diamine]	†† (††: 0.37-0.39)	< 100 nM
